In patent US20210220408A1, “ARYL HYDROCARBON RECEPTOR ANTAGONISTS AND METHODS OF USE” (Magenta Therapeutics Inc., priority 2018, published 2021):

Biological target: T1, aryl hydrocarbon receptor (AHR) (Homo sapiens, UniProt P35869)
T1 sequence (P35869 11-848): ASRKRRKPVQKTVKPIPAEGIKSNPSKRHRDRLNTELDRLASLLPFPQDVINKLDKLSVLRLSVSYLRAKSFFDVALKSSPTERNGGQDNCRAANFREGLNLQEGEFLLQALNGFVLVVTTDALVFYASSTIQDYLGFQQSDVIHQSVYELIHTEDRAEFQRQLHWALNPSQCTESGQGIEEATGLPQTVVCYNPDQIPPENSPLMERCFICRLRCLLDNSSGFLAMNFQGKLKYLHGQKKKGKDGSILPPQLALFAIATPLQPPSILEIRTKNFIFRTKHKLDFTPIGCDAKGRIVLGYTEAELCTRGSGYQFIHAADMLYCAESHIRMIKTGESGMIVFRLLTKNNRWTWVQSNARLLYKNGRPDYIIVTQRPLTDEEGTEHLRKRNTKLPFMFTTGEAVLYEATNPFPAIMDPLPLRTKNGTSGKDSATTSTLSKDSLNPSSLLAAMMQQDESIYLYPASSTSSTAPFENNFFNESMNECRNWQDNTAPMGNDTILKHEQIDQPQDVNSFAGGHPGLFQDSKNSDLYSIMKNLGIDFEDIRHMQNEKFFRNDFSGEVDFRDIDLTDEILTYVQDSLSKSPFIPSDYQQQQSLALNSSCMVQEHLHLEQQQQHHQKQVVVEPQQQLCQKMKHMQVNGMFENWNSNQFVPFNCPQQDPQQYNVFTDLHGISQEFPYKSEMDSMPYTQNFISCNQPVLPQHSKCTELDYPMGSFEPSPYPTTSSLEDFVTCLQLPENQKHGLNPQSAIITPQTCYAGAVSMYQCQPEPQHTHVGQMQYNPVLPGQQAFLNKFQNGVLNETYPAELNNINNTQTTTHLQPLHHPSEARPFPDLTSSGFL
Experiment: DRE-Luciferase reporter high-throughput screen (AHR antagonist, VAF347-activated)

| SMILES | IC50 |
| --- | --- |
| CCOc1ccc(NC(=O)c2c(C)coc2C)cc1 [11B] | 500 to 1000 nM |
| CN(Cc1ccsc1)c1nc2ccccn2c1[N+](=O)[O-] [68B] | 1000 to 2000 nM |
| N#Cc1cc(F)c(NC(=O)c2nsc(Cl)c2Cl)cc1F [28A] | 1000 to 2000 nM |
| CC(=O)c1sc(-c2ccc(Oc3ncnc4sccc34)cc2)nc1C [64A] | 1000 to 2000 nM |
| Brc1ccc(-c2ccc(NC3CCCC3)nn2)cc1 [49B] | 1000 to 2000 nM |
| O=C(Nc1cc2ccccc2s1)c1ccccc1 [23B] | 1000 to 2000 nM |
| Nc1cnc(C(=O)c2ccc(Cl)cc2)s1 [66A] | 1000 to 2000 nM |
| CC(=O)Nc1cn(-c2ccccc2)nc1-c1ccc(Cl)s1 [55B] | 500 to 1000 nM |
| CCOC(=O)c1c(N)sc(C(=O)Nc2cccc(C(F)(F)F)c2)c1C [20A] | 1000 to 2000 nM |
| CC(=O)c1cc(NC(=O)c2ccc(Cl)cc2)c(=O)n(Cc2ccc(Cl)cc2)c1C [29A] | 1000 to 2000 nM |
| COc1cccc(Cn2c3c(cc(NC(=O)c4ccc(C)cc4)c2=O)C(=O)CCC3)c1 [44A] | 1000 to 2000 nM |
| Cc1cccc(NC(=O)c2nc(-c3cn(CC4CCCO4)cn3)n3ccccc23)c1 (stereo not shown) [47A] | > 2000 nM |
| Cc1cccc(NC(=O)c2ccc3c(c2)CC(C)O3)c1 (stereo not shown) [38A] | > 2000 nM |
| CNC(=O)c1ccc(-c2cc(C(F)(F)F)nn2C)s1 [60B] | 1000 to 2000 nM |
| COc1ccc(Br)cc1-c1nc(Cn2cnc(C#N)n2)cs1 [35B] | > 2000 nM |
| Cc1cc(C)c2cc(C(=O)N(C)Cc3ccc(C)o3)[nH]c2c1 [62B] | 500 to 1000 nM |

| SMILES | IC50 |
| --- | --- |
| Cc1ccc(NC(=O)c2cc(C(C)C)n[nH]2)cc1 [24A] | > 2000 nM |
| COc1ccc(Nc2cc(C)nc(-c3ccccc3O)n2)cc1 [47B] | 1000 to 2000 nM |
| CCOc1ccc(-n2nc3ccc(NC(=O)COc4ccccc4Cl)cc3n2)cc1 [73B] | 500 to 1000 nM |
| Cc1nn(-c2ccccc2)c(N)c1-c1nc(-c2ccc(Cl)cc2)cs1 [59A] | > 2000 nM |
| CCC(=O)Nc1ccc(Cl)c(NC(=O)c2ccc(OC(C)C)cc2)c1 [6B] | 500 to 1000 nM |
| CNC(=O)c1ccsc1NC(=O)c1cccc(Oc2ccccc2)c1 [16B] | 1000 to 2000 nM |
| N#Cc1c(NC(=O)Nc2ccc(Cl)c(Cl)c2)sc2c1C1CCN2CC1 [192A] | 1000 to 2000 nM |
| O=C(Nc1cc2c(s1)CCCC2)c1ccccc1 [21B] | 1000 to 2000 nM |
| N#Cc1cccnc1Oc1ccc(NC(=O)c2ccc(F)cc2F)cc1 [5A] | 1000 to 2000 nM |
| Cc1c(Cl)cccc1NC(=O)c1occc1COc1ccccc1 [19A] | 1000 to 2000 nM |
| CS(=O)(=O)Nc1cccc(C(=O)Nc2cccc3cccnc23)c1 [36A] | 1000 to 2000 nM |
| CCCCc1ccc(C(=O)Nc2ccccc2O)cc1 [8A] | > 2000 nM |
| O=C(Nc1ccc(N2CCC(C(F)(F)F)CC2)nc1)c1cccc(Cl)c1 [13A] | > 2000 nM |
| O=C(CN1CCCCCC1)Nc1sc2c(c1C(=O)Nc1ccc(Br)cc1)CCC2 [42A] | 1000 to 2000 nM |
| N#Cc1ccc(C(=O)Nc2ccc(Cl)c(C#N)c2)cc1 [7A] | 1000 to 2000 nM |
| c1ccc2nc(SCc3nc4ccccc4[nH]3)ccc2c1 [65B] | 1000 to 2000 nM |

Next, values leading:

| IC50 | SMILES |
| --- | --- |
| > 2000 nM | CCOC(=O)c1cc(-c2ccc(F)cc2)[nH]c1C [100A] |
| > 2000 nM | O=C(Nc1cccc(F)c1)Nc1ccc2c(c1)C(=O)OC2 [96B] |
| 1000 to 2000 nM | COc1cccc(-c2cc(C(F)(F)F)nc(-n3cc(Cl)cn3)n2)c1 [86A] |
| 1000 to 2000 nM | CCOC(=O)N1CCN(c2nc(Nc3ccc(C)cc3C)c3nccnc3n2)CC1 [82A] |
| 1000 to 2000 nM | Cc1c(C(N)=O)nnc2cc(-c3ccccc3)nn12 [75B] |
| 200 to 500 nM | O=c1cc(CSc2nc3cc(Cl)ccc3o2)nc2sccn12 [112B] |
| 500 to 1000 nM | O=C(Nc1cnc2ccc(C(F)(F)F)cn2c1=O)OCc1ccccc1 [compound 151] |
| 1000 to 2000 nM | C(#Cc1ccc(-c2ccn[nH]2)cc1)c1ccccc1 [103A] |
| 1000 to 2000 nM | Cc1nc2nc(SCc3ccc(Cl)cc3)nn2c(C)c1Cl [74B] |
| > 2000 nM | COc1nc2ccccc2nc1CCC(=O)NC1CCCCCC1 [161A] |
| 1000 to 2000 nM | O=[N+]([O-])c1ccc(C2COC(c3ccc(Cl)cc3)O2)cc1 (stereo not shown) [102B] |
| 1000 to 2000 nM | O=c1[nH]c2ccccc2nc1NCc1ccc(F)cc1 [168A] |
| 500 to 1000 nM | COc1ccc2c(c1)-c1cccc([N+](=O)[O-])c1CC2C#N (stereo not shown) [compound 152] |
| 200 to 500 nM | CCNC(=O)c1sc2ncc(C(=O)c3ccc(C)cc3)n2c1C [compound 66] |
| 500 to 1000 nM | Cc1ccc(NC(=O)c2ccc(OC(F)(F)F)cc2)nc1 [compound 10] |
| 1000 to 2000 nM | CCc1cc2c(=O)c(-c3nc(C)cs3)coc2c(CN2CCCC(c3cccnc3)C2)c1O (stereo not shown) [197A] |
| 500 to 1000 nM | O=[N+]([O-])c1cc(C(F)(F)F)ccc1Oc1ccc(-c2noc(-c3ccccc3F)n2)cc1 [compound 157] |
| > 2000 nM | COc1ccc(-c2noc(-c3cscn3)n2)cn1 [137A] |
| 500 to 1000 nM | Cc1cn2cc(-c3ccc(F)cc3)nc2s1 [compound 67] |
| 1000 to 2000 nM | Cc1ccc2nc(C3=C(N)N(CC(C)C)CC3=O)[nH]c2c1 [113A] |
| 1000 to 2000 nM | COC(OC)c1ccnc(-c2ccc(I)c(F)c2)n1 [84A] |
| > 2000 nM | CC(=O)c1oc2ccc3c(C)cc(=O)oc3c2c1C [118B] |
| < 200 nM | COc1ccccc1-c1nc(-c2ccc(CN(C)C(C)=O)cc2)cs1 [compound 50] |
| 1000 to 2000 nM | OCc1cc(Cl)c(OCc2ccc(F)cc2)c(Cl)c1 [90B] |

| IC50 | SMILES |
| --- | --- |
| 1000 to 2000 nM | c1ccc(-c2ccc(OCc3cn4ccsc4n3)cc2)cc1 [96A] |
| 1000 to 2000 nM | O=C(Cc1ccccc1)Nc1ccc2nc(C(F)(F)F)[nH]c2c1 [111A] |
| 1000 to 2000 nM | Clc1ccc2nnn(OCc3coc(-c4cccs4)n3)c2c1 [132A] |
| 1000 to 2000 nM | CC(=O)N(CCc1ccccc1F)c1nc2ccccc2s1 [108B] |
| > 2000 nM | Fc1ccc(-c2cc(N3CCCCC3)on2)cc1 [81B] |
| 1000 to 2000 nM | COc1ccc(Nc2ccc3ccccc3n2)cc1Cl [157A] |
| 200 to 500 nM | CC(=O)Nc1cc(Cl)c(-c2ccc([N+](=O)[O-])o2)c(Cl)c1 [101B] |
| > 2000 nM | COc1ccc(C(=O)c2cnc3ncccn23)cc1 [121A] |
| 1000 to 2000 nM | CN1CC(c2ccccc2)=Cc2c1ccc1nonc21 [188A] |
| < 200 nM | CN(C)c1ccnc2sc(C(=O)c3ccccc3)c(N)c12 [106B] |
| 200 to 500 nM | CN(C)c1nc(N2CCN(c3ccc(F)cc3)CC2)cc(C(F)(F)F)n1 [compound 81] |
| 1000 to 2000 nM | Cc1nc(N2CCN(c3ccccc3F)CC2)nc2c1C(=O)CCC2 [77A] |
| 1000 to 2000 nM | O=C(c1csc(-c2ccc(Cl)cc2)c1)N1CCCCC1 [148A] |
| 200 to 500 nM | CS(=O)(=O)c1ccc(-c2csc(-c3cccs3)n2)cc1 [compound 61] |
| 1000 to 2000 nM | CNC(=O)N(C)C(=O)c1cnc2onc(-c3ccc(C)cc3)c2c1 [173A] |
| 500 to 1000 nM | CN(C)c1ccc(-c2nnc(-c3cccs3)o2)cc1 [compound 149] |
| 200 to 500 nM | CCOC(=O)c1c(C)[nH]c(-c2cn3ccccc3n2)c1C [compound 102] |
| 1000 to 2000 nM | CCCCCc1ccc2c(C#N)c(OC)ccc2c1 [117B] |
| 1000 to 2000 nM | Cc1ccc(N2CC[C@@H]3[C@@H]2CCN3c2ncc(F)cn2)nn1 [181A] |
| 1000 to 2000 nM | CCN(CC)c1ncnc2sc(-c3ccccc3)cc12 [170A] |
| 1000 to 2000 nM | Cc1cc(C)n(CC(C)Nc2ccc(Cl)c(C#N)n2)n1 (stereo not shown) [91A] |
| 1000 to 2000 nM | Cc1cc(C)c2c(NCc3ccccc3F)[nH]nc2n1 [122A] |
| 500 to 1000 nM | Fc1ccc(-c2cn(-c3ccc4nnc(C(F)(F)F)n4n3)cn2)cc1 [compound 108] |
